Positions count from the first letter of the chain named.
How the values were obtained:
Assay in all cases: HDAC8 mutant biochemical assay
[1] = molecular target: T1, HDAC8 Cys102Ser/Cys153Ser/Cys352Ser (Homo sapiens, UniProt Q9BY41, C102S/C153S/C352S); conditions: read-out: IC50 [μM] @ 100 nM HDAC8: I Cys102Ser/Cys153Ser/Cys352Ser, 1 h preincubation
T1 construct: made in house
T1 sequence (Q9BY41 1-377 C102S/C153S/C352S): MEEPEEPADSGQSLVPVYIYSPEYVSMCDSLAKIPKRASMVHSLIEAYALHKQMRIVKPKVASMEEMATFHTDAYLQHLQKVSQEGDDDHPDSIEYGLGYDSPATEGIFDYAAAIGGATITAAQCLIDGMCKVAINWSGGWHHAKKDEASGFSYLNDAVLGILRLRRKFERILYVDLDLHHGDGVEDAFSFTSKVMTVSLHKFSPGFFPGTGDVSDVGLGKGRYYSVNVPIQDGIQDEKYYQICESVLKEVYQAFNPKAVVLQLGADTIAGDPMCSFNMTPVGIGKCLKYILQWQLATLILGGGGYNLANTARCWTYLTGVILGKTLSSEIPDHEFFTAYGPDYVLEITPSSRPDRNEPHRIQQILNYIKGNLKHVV
Procedure: (§1) HDAC8 mutant variants were generated, produced, and further purified as described previously.[32] Cysteines 28 and 314 were exchanged with serine using the following primer pairs: HD8_C28S_for, […]; HD8_C28S_rev, […]; HD8_C314S_for, […]; HD8_C314S_rev, […].
(§2) The enzyme activity assay was performed in assay buffer [25 mM Tris-HCl (pH 8.0), 50 mM NaCl, and 0.001% (v/v) Pluronic F-68] in black half-area 96-well microplates (Greiner Bio-One). For the initial screening, 10 nM HDAC8 was preincubated with the indicated compounds at 250 μM for 2 h at 30 °C. […] The reaction was initiated by the addition of 20 μM Boc-Lys(TFA)-AMC (Bachem). After substrate conversion at 30 °C for 15 min for HDAC8 and 1 h for HDAC8 mutants and HDAC4, the reaction was stopped by adding 1.67 μM suberoylanilide trifluoromethylketone (SATFMK). The deacetylated substrate was cleaved with 0.42 mg/mL trypsin to release fluorescent 7-amino-4-methylcoumarin (AMC), which was detected with a microplate reader (PHERAstar FS […]) with fluorescence excitation at 360 nm and emission at 460 nm. IC50 values were calculated by generating dose–response curves in GraphPad Prism 6 and fitting those to a four-parameter logistic model.

[2] = molecular target: T2, HDAC8 Cys102Ser/Cys153Ser/Cys314Ser (Homo sapiens, UniProt Q9BY41, C102S/C153S/C314S); conditions: read-out: IC50 [μM] @ 100 nM HDAC8: H Cys102Ser/Cys153Ser/Cys314Ser, 1 h preincubation
T2 construct: made in house
T2 sequence (Q9BY41 1-377 C102S/C153S/C314S): T1 sequence (Q9BY41 1-377 C102S/C153S/C352S) with C314S, S352C
Procedure: as §1, §2

[3] = molecular target: T3, HDAC8 Cys102Ser/Cys153Ser/Cys287Ser (Homo sapiens, UniProt Q9BY41, C102S/C153S/C287S); conditions: read-out: IC50 [μM] @ 100 nM HDAC8: G Cys102Ser/Cys153Ser/Cys287Ser, 1 h preincubation
T3 construct: made in house
T3 sequence (Q9BY41 1-377 C102S/C153S/C287S): T1 sequence (Q9BY41 1-377 C102S/C153S/C352S) with C287S, S352C
Procedure: as §1, §2

[4] = molecular target: T4, HDAC8 Cys102Ser/Cys153Ser/Cys244Ser (Homo sapiens, UniProt Q9BY41, C102S/C153S/C244S); conditions: read-out: IC50 [μM] @ 100 nM HDAC8: E Cys102Ser/Cys153Ser/Cys244Ser, 1 h preincubation
T4 construct: made in house
T4 sequence (Q9BY41 1-377 C102S/C153S/C244S): T1 sequence (Q9BY41 1-377 C102S/C153S/C352S) with C244S, S352C
Procedure: as §1, §2

| SMILES | IC50 [1] [µM] | IC50 [2] [µM] | IC50 [3] [µM] | IC50 [4] [µM] |
| --- | --- | --- | --- | --- |
| C#Cc1cc[n+](C)cc1 [C6+] | 9 ± 1 | 100 ± 14 | 34 ± 2 | 24 ± 3 |
| C[n+]1cccnc1Cl [D1+] | 41 ± 7 | > 130 | > 130 | > 130 |
| C[n+]1cncc(Br)c1 [F2+] | 15 ± 1 | 74 ± 11 | 95 ± 8 | 87 ± 7 |
| C[n+]1cncc(I)c1 [F3+] | 29 ± 6 | 19 ± 2 | > 130 | 26 ± 4 |

Continued by falling IC50 [1], values first:

| IC50 [1] [µM] | IC50 [2] [µM] | IC50 [3] [µM] | IC50 [4] [µM] | SMILES |
| --- | --- | --- | --- | --- |
| 118 ± 13 |  | > 130 | > 130 | C#Cc1nccc[n+]1C [D6+] |
| 59 ± 3 | > 130 | 73 ± 6 | 100 ± 12 | C#Cc1c[n+](C)ccn1 [G6+] |
| 36 ± 2 | 92 ± 10 | > 130 | > 130 | C[n+]1ccccc1I [A3+] |
| 29 ± 2 | 14 | > 130 | > 130 | C[n+]1ccc(I)cc1 [C3+] |
| 15 ± 2 | > 130 | > 130 | > 130 | C[n+]1cccnc1Br [D2+] |
| 11 ± 1 | 20 ± 1 | 51 ± 7 | 40 ± 6 | C[n+]1cccnc1I [D3+] |
